From the Kinase Knowledgebase extract (Sharma et al. 2016)
pIC50, pKi: −log10 of the molar value.

Key:
[1] = target: CDK2 (UniProt P24941); assay: Enzyme Assay
[2] = target: ROCK2 (UniProt O75116); assay: Inhibition of ROCK2 Kinase Activity; settings: concentration not given here
[3] = target: CDK2 (UniProt P24941); assay: Enzyme Assay; remark: listed apart in the source
[4] = target: MAPK14 (UniProt Q16539); assay: Inhibition of MAPK14 Kinase Activity; settings: concentration not given here
MAPK14, sequence (Q16539 whole entry, looked up): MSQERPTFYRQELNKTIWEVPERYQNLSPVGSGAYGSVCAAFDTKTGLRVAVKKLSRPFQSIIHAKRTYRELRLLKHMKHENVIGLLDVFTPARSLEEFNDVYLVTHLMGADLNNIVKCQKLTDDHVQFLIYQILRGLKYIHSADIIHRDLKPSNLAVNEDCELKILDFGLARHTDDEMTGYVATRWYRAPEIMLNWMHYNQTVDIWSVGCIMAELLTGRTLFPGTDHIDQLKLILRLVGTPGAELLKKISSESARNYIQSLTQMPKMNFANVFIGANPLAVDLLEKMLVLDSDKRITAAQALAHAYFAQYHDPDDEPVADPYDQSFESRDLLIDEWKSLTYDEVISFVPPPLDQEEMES

ROCK2, sequence (O75116 whole entry, looked up): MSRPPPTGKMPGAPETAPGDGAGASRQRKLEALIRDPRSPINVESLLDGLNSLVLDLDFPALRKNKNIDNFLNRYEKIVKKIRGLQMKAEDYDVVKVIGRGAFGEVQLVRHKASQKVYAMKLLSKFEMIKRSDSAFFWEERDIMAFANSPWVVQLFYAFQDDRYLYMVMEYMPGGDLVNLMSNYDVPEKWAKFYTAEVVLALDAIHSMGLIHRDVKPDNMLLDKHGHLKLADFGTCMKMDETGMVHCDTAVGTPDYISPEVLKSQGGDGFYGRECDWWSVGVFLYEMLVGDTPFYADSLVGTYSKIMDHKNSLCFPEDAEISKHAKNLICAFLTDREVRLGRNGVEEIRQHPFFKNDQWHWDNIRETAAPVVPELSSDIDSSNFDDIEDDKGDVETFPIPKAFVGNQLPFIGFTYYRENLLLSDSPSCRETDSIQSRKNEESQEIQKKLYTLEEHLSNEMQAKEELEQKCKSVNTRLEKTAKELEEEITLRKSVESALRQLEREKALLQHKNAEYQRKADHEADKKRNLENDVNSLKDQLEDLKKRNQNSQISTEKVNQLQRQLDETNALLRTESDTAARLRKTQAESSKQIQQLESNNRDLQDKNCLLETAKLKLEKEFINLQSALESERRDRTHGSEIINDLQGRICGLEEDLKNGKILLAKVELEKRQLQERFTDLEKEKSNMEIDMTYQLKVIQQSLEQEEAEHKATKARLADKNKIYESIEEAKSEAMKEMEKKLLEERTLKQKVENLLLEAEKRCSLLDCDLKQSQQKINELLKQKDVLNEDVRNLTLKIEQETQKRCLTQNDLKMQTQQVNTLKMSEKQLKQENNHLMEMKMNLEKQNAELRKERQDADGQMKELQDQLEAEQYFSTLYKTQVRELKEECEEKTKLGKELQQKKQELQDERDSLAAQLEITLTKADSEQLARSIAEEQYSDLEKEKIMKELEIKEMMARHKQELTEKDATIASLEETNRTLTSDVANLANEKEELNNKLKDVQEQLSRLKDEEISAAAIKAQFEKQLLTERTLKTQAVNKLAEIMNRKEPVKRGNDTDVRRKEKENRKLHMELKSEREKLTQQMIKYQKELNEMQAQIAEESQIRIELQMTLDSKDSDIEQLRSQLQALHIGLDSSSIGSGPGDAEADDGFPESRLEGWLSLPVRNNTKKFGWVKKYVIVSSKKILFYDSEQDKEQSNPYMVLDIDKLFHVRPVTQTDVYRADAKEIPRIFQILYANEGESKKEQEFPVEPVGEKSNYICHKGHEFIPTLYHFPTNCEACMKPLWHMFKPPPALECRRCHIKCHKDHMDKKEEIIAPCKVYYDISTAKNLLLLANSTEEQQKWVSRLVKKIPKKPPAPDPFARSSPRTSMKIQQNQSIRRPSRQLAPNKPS

| Structure (SMILES) | pIC50 [1] | pKi [1] | inhibition [2] [%] | pIC50 [3] | pKi [3] | inhibition [4] [%] |
| --- | --- | --- | --- | --- | --- | --- |
| Clc1ccc(Nc2nccc(-c3nccs3)n2)cn1 | < 4.30 | < 4.30 | 13 | 4.96 | 5.26 | 16 |
| COc1ccc(Nc2nccc(-c3nc(C)c(C)s3)n2)cn1 | < 5.00 |  |  | < 6.00 |  |  |
| CCOC(=O)c1sc(-c2ccnc(Nc3ccc(Cl)cc3)n2)nc1O | < 5.00 |  |  | < 6.00 |  |  |
| Cc1nc(-c2ccnc(Nc3ccc(Cl)nc3)n2)sc1C | < 5.00 |  |  | < 5.00 |  |  |
| COc1ccc(Nc2nccc(-c3nccs3)n2)cn1 | < 4.00 |  |  | < 4.30 |  |  |
